# Earlier results in patent publication US20030049260A1, “Method of improving cognitive function” (priority 2001, published 2003).
# Details: for Change in Symbol Digit: max. increase: duration 12 weeks, An J Geriatr Psychiatry 1999;7:221-227
smiles,measurement,setting,value
CNCCC(Oc1ccc(C(F)(F)F)cc1)c1ccccc1 (stereo not drawn) [Fluoxetine],Change in Symbol Digit: max. increase,,10% increase
CNC1(c2ccccc2Cl)CCCCC1=O (stereo not drawn) [Ketamine],Change in Symbol Digit: decline,in vivo,5-10% decline
CN[C@@H](C)Cc1ccccc1 [Methamphetamine],Change in Symbol Digit: reduction in drug group as compared to a control group,in vivo,Significant 14%
CC(C)NCC(O)COc1cccc2ccccc12 (stereo not drawn) [Propranolol],Change in Symbol Digit: decline as compared to placebo,"duration 8 hours, Br. J. Clin Pharmac 1984;17:31-36",10-15% decline
CN[C@H]1CC[C@@H](c2ccc(Cl)c(Cl)c2)c2ccccc21 [Sertraline],Change in Symbol Digit: max. increase,,21% increase
Cc1nnc2n1-c1ccc(Cl)cc1C(c1ccccc1Cl)=NC2 [Triazolam],Change in Symbol Digit: reduction,in vivo,10-20% reduction
